For 99 compounds, cytotoxicity results are on record in ChEMBL document CHEMBL3507680, “University of Dundee, Gates Library screen for HepG2 cell viability”.

The series is described as follows: Human HepG2 cell viability assay in 384 well format. The class given is toxicity, cell-based. Set-up: dose 125 nL, time 70.5 hour; cytotoxicity at 70.5 h: concentration not given beside the values. The conditions noted are these: HepG2 cells, read-out: Inhibition.
As to `c1c[nH]c(-c2cn(CCSc3cnn[nH]3)nn2)n1`, the cytotoxicity at 70.5 h was -11.9%.
To `Cc1ccc(CN2CCc3[nH]nc(C(=O)N4CCNC(=O)C4)c3C2)s1` belongs 3.82%.
Under `O=C(NCc1ccco1)Nc1cccc(S(=O)(=O)C(F)F)c1` stands -8.46%; under `CC(NC1CCSCC1)c1ccccc1-n1cccn1` (centres undefined), -11.7%.
Under `CCCN1CCCN(S(=O)(=O)c2cnc3onc(C)c3c2)CC1` stands 2.21%; under `CCN(CC)CCCNCc1cc2cc(C)ccc2[nH]c1=O`, 7.87%.
In the case of `Cn1cc(CNc2ccc(F)c(N3CCCS3(=O)=O)c2)cn1`, the cytotoxicity at 70.5 h is -1.61%.
To `O=C(COCc1ccccc1)N1CCC(OCc2cccnc2)CC1` belongs -3.09%; to `CCc1noc(CC)c1CC(=O)N1CCN(C(C#N)C(C)C)CC1` (centres undefined), -8.63%; to `Cc1csc(N2CCCN(C(=O)Cn3cncn3)CC2)n1`, -2.46%.
Regarding `COc1cccc(CC2CCCN2Cc2nccn2C)c1` (centres undefined), the cytotoxicity at 70.5 h is -5%.
Regarding `Cc1nc(C2CCN(C(=O)c3cnc(N(C)C)nc3)CC2)c2sccn12`, the cytotoxicity at 70.5 h was determined as 1.86%.
Under `CC(=O)c1ccc(N2CCN(C(=O)NCc3cc[nH]n3)CC2)cc1` stands -2.83%; under `O=C(NC1CCCNC1=O)c1ccc2nc(-c3ccc(F)cc3)cn2c1` (centres undefined), 15%; under `Cc1cc(N(Cc2cccs2)C2CC2)n2nc(C(F)(F)F)nc2n1`, -1.76%.
With `CCOC(=O)COc1cccc(NC(=O)C2COCCO2)c1` (centres undefined), the cytotoxicity at 70.5 h was -3.53%.
Under `CS(=O)(=O)CCSc1n[nH]c(-c2ccc3c(c2)CCC3)n1` stands 3.91%; under `CC(C)c1nncn1CCNC(=O)c1ccc(Cl)cc1O`, 0.918%; under `CC(=O)N1CCCN(Cc2nnc(C(C)(C)C)o2)CC1`, 5.23%.
To `Cc1cc(CNC2(c3ccc(Cl)cc3)CC2)no1` belongs -2.02%.
To `Cc1ccc(NC2CCN(C(=O)c3ccco3)CC2)nn1` belongs 11.9%; to `O=C(Nc1ccccn1)c1nc(N2CCCC2)ncc1Cl`, -6.57%; to `Cc1ccc(CN(Cc2ccccn2)C(=O)CCC2CCCN(C)C2)s1` (centres undefined), 32.1%.
Take `Cc1ccc(NC(=O)C2CSCN2C(=O)c2cc[nH]n2)c(C)c1` (centres undefined): the cytotoxicity at 70.5 h is -2.12%.
To `Cc1nc2ncnn2c2ccn(-c3cccnc3O)c(=O)c12` belongs -15.9%; to `Cc1nc(CN2CCC23CCN(C(=O)c2ccncc2)CC3)cs1`, -9.81%.
Under `O=C(CC1CCCC1)Nc1ccc(-n2cc(Cl)cn2)nc1` stands -12.3%.
Under `CCC1CN(C)c2ccccc2CN1C(=O)Nc1ccccc1OC` (centres undefined) stands 16.8%; under `Cc1cnc(-c2nc(O)c3c(n2)CN(C(=O)CC2CCCC2)CC3)cn1`, -2.15%; under `COc1ccc2cnn(CC(=O)NC3CCCCC3)c(=O)c2c1OC`, 1.17%.
For the compound `CN(CC(O)C(F)(F)F)C(=O)Nc1cccc(C(F)F)c1` (centres undefined), the cytotoxicity at 70.5 h is -7.43%.
To `CN(C)C(=O)CN1CCOCC2(CCN(CC3CCOC3)CC2)C1` (centres undefined) belongs 15.1%.
Under `Cc1nc(CN(Cc2ccc3c(c2)OCCO3)C2CCCC2)no1` stands -7.64%; under `CN(C)c1ccc(C(=O)NCc2cccnc2-n2cncn2)cc1F`, -17.5%.
Take `C1CC(CN2C[C@@H]3C[C@@H](c4nnc(C5CC5)o4)O[C@@H]3C2)C1`: the cytotoxicity at 70.5 h is 27.7%.
To `CC(C)c1ccc(O)c(C(=O)NC2CCN(c3ncccn3)CC2)c1` belongs -19.5%; to `CC(C)Cc1noc(CN2CCN(C(=O)c3ccccc3F)CC2)n1`, 13.7%; to `Cc1nn(C)c(C)c1CN(C)C(=O)c1cccc(CCC(C)(C)O)c1`, -0.259%.
In the case of `CC1COc2ccccc2N1C(=O)CCc1cscn1` (centres undefined), the cytotoxicity at 70.5 h was found to be 3.54%.
Under `CC(=O)Nc1nc(-c2ccc(F)cc2)c[nH]1` stands 36.5%; under `Cc1nn(C)cc1Cn1c(=O)c(C)nc2ccccc21`, -6.18%; under `O=C(Cc1cccc(O)c1)N1CCC2(CC1)c1ccccc1CC2O` (centres undefined), -11.7%.
Regarding `CCCS(=O)(=O)N1C[C@H]2C[C@H](C(=O)N3CCOCC3)[C@@H](C1)O2`, the cytotoxicity at 70.5 h was -4.21%.
To `CCN(CC)Cc1nnc2sc(C(C)Oc3ccccc3)nn12` (centres undefined) belongs 4.82%; to `CCCN(CC(=O)NC)C(=O)c1ccc(-c2nc(C)cs2)cc1`, -10.1%.
To `CC[C@@H]1N(Cc2nccs2)CCC[C@]12CCC(=O)N2C` belongs 9.06%; to `Cc1nn(CC(=O)Nc2cccc(F)c2)c(N)c1C#N`, -5.02%; to `COc1ccc(OC)c(CNC2CCCc3nc(N(C)C)ncc32)c1` (centres undefined), -7.31%.
To `Cc1nn(C)c(N(C)C)c1CNC(C)COc1ccc(F)cc1` (centres undefined) belongs -4.85%; to `Cc1nc(CN2CCCC(Cn3cc(CCO)nn3)C2)c[nH]1` (centres undefined), -1.03%.
For the compound `O=C(O)c1cc(C2=CCCCC2)cc(S(=O)(=O)NCc2ccccn2)c1`, the cytotoxicity at 70.5 h is -8.44%.
Regarding `O=S(=O)(CCc1ccccc1)Nc1cc(Cl)ccn1`, the cytotoxicity at 70.5 h worked out at 0.152%.
For the compound `O=C(CCOc1ccccc1F)N1CCCC(n2cncn2)C1` (centres undefined), the cytotoxicity at 70.5 h was 6.03%.
For the compound `CSc1ncccc1C(=O)N(CCO)Cc1ccccc1`, the cytotoxicity at 70.5 h is -0.362%.
Under `O=C(NCCN1CCCC1)c1cc2c(s1)CCN2C(=O)c1ccccc1` stands -8.31%; under `CN1CCOC(C)(C(=O)Nc2nccs2)C1` (centres undefined), 40.2%; under `Cc1cccc(-n2c(C)cc(C(=O)N3CCn4c(C)nnc4C3)c2C)c1`, -1.57%.
Under `O=C1N(c2cccc(F)c2)Cc2nc(=O)n(Cc3ccc(Cl)cc3)n21` stands -12.7%; under `CN(C)C(C(=O)N1CCCN(C(=O)C2CCC2)CC1)c1ccccc1F` (centres undefined), -9.38%; under `CC(C)COC(C)C(=O)NCc1ccc(-n2cncn2)nc1` (centres undefined), 3.66%.
Under `COc1nc2c(cc1C(=O)N1C[C@@H](N)C[C@H]1C(=O)NC(C)C)CCC2` stands -2.39%; under `CCc1ncc2c(n1)CN(C(=O)c1c(C)[nH]c(C(C)=O)c1C)C2`, -9.15%.
In the case of `Fc1cnc(N2CCN3C[C@H](Oc4cccnc4)C[C@H]3C2)nc1`, the cytotoxicity at 70.5 h is -3.94%.
To `Nc1ncc(CN2CCC(CCC(=O)NC3CC3)CC2)cn1` belongs 0.29%; to `CNC(=O)c1[nH]nc2c1CN(c1cc(C3CCCNC3)nc(C)n1)CC2` (centres undefined), -10.6%.
To `CCn1cc(CNC(=O)c2nn(CC)cc2Br)cn1` belongs 8.71%; to `Cc1nn(C)c(N2CCOCC2)c1CNCC1CCCN1C` (centres undefined), -5.73%; to `O=C(CCSc1ccc(F)cc1)N1CCN(c2cnccn2)CC1`, -14.2%.
To `CC(C)C1CN(C(=O)c2ccc(C(N)=O)cc2)CCS1` (centres undefined) belongs -6%; to `CCS(=O)(=O)N1CC(c2nc(-c3ccncc3)no2)C1`, -2.55%; to `Cc1ccn(CC(=O)Nc2cc(-c3ccncc3)[nH]n2)n1`, -2.4%.
With `O=C(NC1CCS(=O)(=O)C1)c1cn(C2CC2)c(=O)c2ccccc12` (centres undefined), the cytotoxicity at 70.5 h is -14.3%.
Under `CC(C)c1cncnc1N1CC[C@H](N2CCOCC2)[C@H](CCCO)C1` stands -9.63%.
Under `O=C(O)[C@]12CCCN(Cc3ccoc3)C[C@H]1CN(c1ncccn1)C2` stands -6.33%; under `COc1cc(C(=O)N(CCC#N)Cc2ccccn2)ccc1C`, 2.05%.
As to `CCCN(Cc1cccnc1)C(=O)C1CCNC1` (centres undefined), the cytotoxicity at 70.5 h was -1.17%.
Under `CCc1c(C)nc(C)nc1N1C[C@@H](CN(C)C)[C@@H](CO)C1` stands -1.15%; under `COc1ccc(C)c(NC(=O)NCc2cccc(N(C)C)n2)c1`, -6.19%; under `CCn1cc(CN(C)S(=O)(=O)c2cc(Cl)ccc2Cl)cn1`, 22.9%.
To `CCO[C@H]1CO[C@@]2(CCCN(S(=O)(=O)c3ccccc3)C2)C1` belongs 1.01%; to `O=C1CO[C@H]2CN(C3CCOCC3)C[C@H]2N1Cc1ccncc1`, 0.0501%.
Under `COc1cccc(-c2c[nH]c(C)n2)c1F` stands -11.2%.
For `O=C(c1cccnc1)N1C[C@@H]2CC[C@H](C1)N(Cc1ccc(F)cc1Cl)C2`, the cytotoxicity at 70.5 h was found to be 2.53%.
To `Cc1cccc(N2CC3(CCN(C(=O)NC(C)C)C3)CC2=O)c1` (centres undefined) belongs -9.16%.
To `COCc1ccccc1C(=O)N(C)Cc1ncc(C)c(OC)c1C` belongs 19.4%; to `O=C(NCC1CCOC1)Nc1ccc(Oc2ccc(F)cc2)nc1` (centres undefined), 15.8%; to `C[C@@H]1C[C@@H]2CCN(Cc3nccs3)C[C@H]2O1`, -9.1%.
Under `CC(NS(=O)(=O)CC1(C#N)CCCC1)c1cccc(-n2cccn2)c1` (centres undefined) stands -3.64%.
`Cc1n[nH]c2c1C(c1ccc(O)c(Cl)c1)SCC(=O)N2` (centres undefined): the cytotoxicity at 70.5 h is 1.38%.
With `COc1ccccc1-c1nnc2n1NC(N)=C(C#N)S2`, the cytotoxicity at 70.5 h is -28.8%.
To `CC(C)OCCN1CCC(C(=O)c2cc(F)ccc2F)CC1` belongs 25%.
To `Cc1ccc(C(CNCc2cccnc2)N2CCOCC2)s1` (centres undefined) belongs -10.2%; to `CC(C)(C)NC(=O)CN1CCCNCC1`, -0.58%; to `CN(Cc1ccc2nsnc2c1)CC1(O)CNCCOC1` (centres undefined), -6.32%.
Under `CS(=O)(=O)N1CCC2(CCCN(Cc3ccccn3)C2)C1` (centres undefined) stands 9.19%.
As to `O=C(NC1CC1)N1CCN(c2cnccn2)CC1`, the cytotoxicity at 70.5 h was -1.17%.
Under `CC(CNCc1ccc(F)cc1)Oc1ccccn1` (centres undefined) stands -17.7%; under `CCOCc1nn(CC2CC2)c2c1CN(C(=O)c1ccno1)CC2`, -7.44%; under `CCn1nc(CC(C)C)cc1C(=O)N1CCC2(CC1)[C@H](O)C[C@@H]2O`, 1.5%.
